Series [1] relates to IMR90 cells. Nature of the series: DAPI staining assay of surviving cells in replicative senescence model. The note with it: DAPI signal, 0.5 μM, 48 h, FIG. 2B. The procedure: Following treatment, the cells were seeded in 96mw. The adherent cells were then fixed with 70% ethanol, incubated for 30 min with a 3 μM DAPI solution; the fluorimetric signal was measured using a multiplate reader (Victor Nivo-Perkin Elmer) set to 350/460 nm (Ligasová A, Koberna K. Quantification of fixed adherent cells using a strong enhancer of the fluorescence of DNA dyes. Sci Rep. 2019 Jun. 18; 9(1):8701. doi: 10.1038/s41598-019-45217-9. PMID: 31213648; PMCID: PMC6581942.).
To confirm data obtained by traditional cell counting by a single operator, a quantification method based on […] was also implemented, exploiting the ability of the DAPI to mark cell nuclei. The cells that survived the action of senolytics were fixed and incubated with the fluorescent indicator. The specific signal was measured using the microplate multimode reader, Victor NIVO (PerkinElmer Tech. GmbH, Germany).

For series [2], the system named is primary human fetal lung cells IMR90. The series is classed as cell-based. The source says:
Cell culture and replicative senescence. Fetal pulmonary fibroblasts, IMR90, were provided by the European Collection of Authenticated Cell Culture (ECACC) and grown in a complete medium consisting of Minimum Essential Medium (MEM), 10% Fetal Bovine Serum (FBS), 1% penicillin-streptomycin (antibiotic), 1% L-glutamine. Cells with passages from P15 to P21 were used; cells were considered incrementally senescent from passage P19 to passage P21. […] The cells were fixed in paraformaldehyde 2% and incubated with the substrate, X-gal, in a solution at pH 6, at 37° C., overnight (16 h).
The images were acquired using an optical microscope (Leica) with 5× magnification. The images were analyzed using the ImageJ software, quantifying the colorimetric signal emitted by each cell. The mean signal intensity was then normalized for the total number of cells. Survival curves of the compounds. […] The cells were then counted manually, in triplicate, using disposable burker chambers.
13 compounds including K5, with different structures, were assayed using an in vitro senescence model, that was developed utilizing serial passages of primary human fetal lung cells IMR90. […] Senescence was detected using the “Senescence β-Galactosidase Staining Kit” (#9860S, Cell Signaling Technology, Inc., MA, USA). […]

The target of series [3] is T1, recombinant HSP90α (Homo sapiens, UniProt P07900).
T1 construct: purchased BPS Bioscience 50293
Kind of series: HSP90 inhibition activity assay, FITC-geldanamycin competitive binding fluorescence polarization. The note with it: 1 pM-10 μM, 2 h, FITC-labeled geldanamycin. As for the experimental part: HSP90 inhibition activity assay. […] Briefly, the compounds were diluted at different concentrations between 1 pM to 10 μM and incubated for 2 h with the enzyme and substrate at RT while stirring.
A general note: In fluorescence polarisation assays a small probe gives low polarisation when free and higher when bound to something large.

The nature of series [4]: Crossing of the blood-brain barrier after administration. The note with it: in vivo.
The conditions of series [5]: rats; cited from earlier work.
The conditions of series [6]: dogs; cited from earlier work.

The text below walks through data of patent US20240425508A1, “COMPOUNDS USEFUL IN PREVENTION AND/OR TREATMENT OF SENESCENT CELL-RELATED PATHOLOGIES AND DISEASES” (ISTITUTI CLINICI SCIENTIFICI MAUGERI SPA SB, priority 2022, published 2024).

In general, IC50 refers to the point on the concentration scale where inhibition reaches its midpoint.

Where two headings read alike, the source gives them in different places.

`CC(C)c1cc(-c2n[nH]c(=O)n2-c2ccc3c(ccn3C)c2)c(O)cc1O` [Ganetespib]: the “cytotoxic effects in the cellular model IMR90” value in series [1] was “cytotoxic effects already at low concentrations and also in early passages”.

In the case of `Cc1ccccc1-n1c(=O)n(Cc2ccccc2)c(=O)c2[nH]cnc21` [Compound Ia, 1-benzyl-3-(2-methylphenyl)-2,3,6,7-tetrahydro-1H-purine-2,6-dione], the “reduction of the senescent population” value in series [2] (IMR90 P19-P21, first 48 hours of exposure, FIG. 2A (1 μM)) is recorded as “about 50%”. Also, the “senolytic action on cells at passages between P19 and P21” value in series [2] (IMR90 P19-P21 vs P15-P17, 1 μM, 48 h) is “act selectively and significantly”. Moreover, the 50% inhibitory concentration (IC50) in series [3] stood at 731 nM. In addition, the “crossing of the blood-brain barrier (BBB)” value in series [4] is “enables the crossing of the blood-brain barrier”.

Regarding `CO[C@H]1/C=C\C=C(/C)C(=O)NC2=CC(=O)C(NCCN(C)C)=C(C[C@@H](C)C[C@H](OC)[C@H](O)[C@@H](C)/C=C(\C)[C@@H]1OC(N)=O)C2=O` [Compound 17-DMAG, 17-dimethylaminoethylamino-17-demethoxygeldanamycin], in series [1], the “cytotoxic effects in the cellular model IMR90” value is “cytotoxic effects already at low concentrations and also in early passages”. Moreover, the “maximum tolerated dose (MTD)” value in series [5] is listed as 12 mg/m^2; in series [6], 8 mg/m^2.
